Legend:
rNTS2 receptor [1] = target: T1, rNTS2 receptor (Rattus norvegicus, UniProt Q63384); experiment: NTS2 FLIPR calcium mobilization assay, agonist mode; assay type: cell-based; details: for agonist behaviour in the NTS2 FLIPR assay (calcium release): CHO cell line stably expressing rNTS2, FLIPR Tetra, pilot study
T1 sequence (Q63384 1-416): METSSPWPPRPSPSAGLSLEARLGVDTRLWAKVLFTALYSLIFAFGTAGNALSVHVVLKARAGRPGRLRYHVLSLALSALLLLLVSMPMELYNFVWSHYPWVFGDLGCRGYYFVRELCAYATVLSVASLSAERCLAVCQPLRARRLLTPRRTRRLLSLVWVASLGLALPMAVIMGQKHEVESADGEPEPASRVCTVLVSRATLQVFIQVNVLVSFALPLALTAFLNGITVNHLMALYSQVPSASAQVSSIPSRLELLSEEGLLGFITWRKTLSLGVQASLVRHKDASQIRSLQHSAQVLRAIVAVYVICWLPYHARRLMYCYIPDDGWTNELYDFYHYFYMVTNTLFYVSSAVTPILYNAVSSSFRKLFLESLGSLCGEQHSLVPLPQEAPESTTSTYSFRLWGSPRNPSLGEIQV

rNTS2 receptor [2] = target: T1, rNTS2 receptor; experiment: Competitive binding assay versus [125I]NT at NTS2; details: ratio of Ki values, versus compound 13
NTS1 = NTS1 (Rattus norvegicus, UniProt P20789); experiment: NTS1 FLIPR assay; assay type: cell-based; details: data not shown
Sequence of NTS1 (P20789 whole entry): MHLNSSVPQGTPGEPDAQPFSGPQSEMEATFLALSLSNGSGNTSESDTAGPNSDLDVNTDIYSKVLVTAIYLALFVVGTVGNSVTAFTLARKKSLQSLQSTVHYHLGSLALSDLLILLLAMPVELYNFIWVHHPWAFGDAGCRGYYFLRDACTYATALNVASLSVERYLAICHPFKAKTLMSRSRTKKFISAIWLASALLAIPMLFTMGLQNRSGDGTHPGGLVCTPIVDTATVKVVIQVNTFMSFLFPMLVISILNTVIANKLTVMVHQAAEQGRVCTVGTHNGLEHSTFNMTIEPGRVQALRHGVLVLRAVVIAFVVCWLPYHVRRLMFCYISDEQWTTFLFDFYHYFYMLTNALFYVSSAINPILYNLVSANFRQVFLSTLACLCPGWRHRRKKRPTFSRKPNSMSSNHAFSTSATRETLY

rNTS2 receptor [3] = target: T1, rNTS2 receptor; experiment: NTS2 FLIPR calcium mobilization assay, antagonist mode; assay type: cell-based; details: for type of antagonism of 3b in the Ke experiment at NTS2: Ke assays against dose-response curves of control agonist 3b

| SMILES | agonist behaviour in the NTS2 FLIPR assay (calcium release) (rNTS2 receptor [1]) | activity in the NTS1 FLIPR assay (NTS1) | type of antagonism of 3b in the Ke experiment at NTS2 (rNTS2 receptor [3]) | also measured |
| --- | --- | --- | --- | --- |
| C[C@@H]1CN([C@H]2CC[C@](C#N)(c3ccc(F)cc3)CC2)CC[C@]1(C(=O)O)c1ccccc1 [Levocabastine, levocabastine] | potent partial agonist activity | – | – | Emax (rNTS2 receptor [1]; read-out: FLIPR assay NTS2 Emax): 14 to 16% |
| COc1cccc(OC)c1-c1cc(C(=O)NC2(C(=O)O)C3CC4CC(C3)CC2C4)nn1-c1ccnc2cc(Cl)ccc12 (stereo not shown) [3a] | full agonists | – | – | – |
| Cc1ccc(S(=O)(=O)Nc2ccc3c(c2)c(C(=O)C(F)(F)F)cn3CC(=O)N[C@@H](CC(C)C)C(=O)O)cc1 [compound 5, N-{[5-{[(4-Methylphenyl)sulfonyl]amino}-3-(trifluoroacetyl)-1H-indol-1-yl]acetyl}-L-leucine] | – | Neither of the test compounds (5 or 13) showed activity | insurmountable antagonist activity | fold boost to NTS2 binding affinity versus 13 (rNTS2 receptor [2]): 7.5 fold; fold more active than 13 in the NTS2 FLIPR assay (antagonist activity) (rNTS2 receptor [3]; ratio of IC50 values, versus compound 13): 90 fold; fold more active than NT in the NTS2 FLIPR assay (rNTS2 receptor [3]; ratio of IC50 values, versus endogenous ligand NT): ~3 fold |
| COc1cccc(OC)c1-c1cc(C(=O)NC2(C(=O)O)C3CC4CC(C3)CC2C4)nn1-c1ccc(C(=O)N(C)CCCN(C)C)cc1C(C)C (stereo not shown) [3b] | full agonists | – | – | – |
| Cc1ccc(S(=O)(=O)Nc2ccc3c(ccn3CC(=O)N[C@@H](CC(C)C)C(=O)O)c2)cc1 [compound 13, N-[(5-{[(4-Methylphenyl)sulfonyl]amino}-1H-indol-1-yl)acetyl]-L-leucine] | – | Neither of the test compounds (5 or 13) showed activity | insurmountable | NTS2 agonist activity in library screen (rNTS2 receptor [1]; single concentration 10 μM): devoid of NTS2 agonist activity; activity at NTS1 in library screen (NTS1; single concentration 10 μM): no activity at NTS1 |

Source: article PMC4161155 (Journal of Medicinal Chemistry, 2014)
